Patent US5955578A, “Polypeptide-polymer conjugates active in wound healing” (La Jolla Cancer Research Foundation, priority 1995, dated 1999)
Where no end group is shown, it is not given here. [ ]: non-standard residue; d: D form.

Key:
[1] = tested on: full thickness skin incisions; experiment: Wound tensile strength in rat full thickness dermal incisions; format: in vivo, Wistar Furth rats
Procedure: Wistar Furth adult male rats (175-250g) were anesthetized by intraperitoneal injection of pentobarbital (60 mg/kg body weight). The rats dorsal area was closely shaved, and each animal was positioned and secured for surgery. Using aseptic technique, five full thickness skin incisions, 1.5 cm long, were made on the dorsal area. Each incision was treated with 0.05-0.10 ml of a blind sample of the peptide RRRRRRGDSPK-conjugated to hyaluronate or with 0.05-0.10 ml of human fibronectin (3 mg/ml in PBS, Colloborative Research, Bedford, Mass.) or rat fibronectin (2 mg/ml in PBS, Telios Pharmaceuticals, San Diego, Calif.) or was left untreated as a control. After treatment, the incisions were closed using standard 4-0 nylon sutures for placement of 5 to 7 interrupted sutures. The rats were returned to their cages for recovery and observation. At post operative days 2 through 7 and 10, six animals were anesthetized as above and were euthanized by an intracardiac injection of 0.5 cc of T-61.
Following euthanasia, the pelt was removed from the rat and 5 mm wide by 2 cm long skin strips bisecting incisions were prepared. Histological specimens from the skin adjacent to the tensile strength strip were also taken. To measure tensile strength, one end of the strip was clipped using a 1 mm Michel Clipper (Militex Instruments Co.) which was tied to a Grass model FTO3C force displacement transducer. The other end of the strip was clipped using a light weight hemostat which was attached to a Harvard Model 901 push-pull infusion pump (Harvard Instruments, Millis, Mass.) using cotton thread over a pulley. The transducer was attached to a Grass polygraph (Model 7D) for recording the results. After calibration, the pump was turned on to pull at the rate of 64 mm/min. The amount of force required to pull the skin apart at the incision was recorded on the polygraph.

[2] = In vitro assays of the type described in Pierschbacher et al. (1983); format: cell-based
dry eye condition = experiment: Dry eye syndrome induced by excision of tear ducts; format: in vivo; conditions: cats; eye drops from day 17 to day 43; conjugate at 100 mg/ml
Procedure: The dry eye conditon was induced in six cats on day zero by the excision of tear ducts from the eyes. The cats were divided into two groups and treated as follows:
Group one was treated with two drops of human fibronectin, 3 mg/ml, a day twice a day from day 17 to day 34, and two drops a day three times a day from day 34 to 43. Group two was treated with two drops of chondroitin sulfate-peptide conjugate, G(dR)5 G3 (dR)GDSPASSK 100 mg/ml, a day twice a day from days 17 to 34, and two drops a day three times a day from day 34 to day 43.

[3] = tested on: PVA sponges implanted under the skin; experiment: Polyvinylalcohol sponge implant model; format: in vivo, rats
Procedure: Peptide-hyaluronate conjugates were tested using the model of Davidson, et al., J. Cell Biol. 100: 1219-1227 (1985), which is incorporated herein by reference. This model involves the implantation of inert PVA sponges loaded with the conjugates or control materials under the skin of rats. The sponges were removed from the animals at 4 to 10 days after implantation and analyzed for cell ingrowth number and type and as collagen content, blood vessel formation (angiogenesis) and inflammatory response, as well as persistence of the conjugate in the wound.

[4] = early time points, effect diminishing at later time points

Substance: conjugates employing the peptide G(dR)5 G3 (dR)GDSPASSK: peptide G(dR)5G3(dR)GDSPASSK coupled to hyaluronic acid with EDC, 20 to 30% peptide by weight (G[dR][dR][dR][dR][dR]GGG[dR]GDSPASSK; also: coupled to hyaluronic acid with EDC)
- wound strength, % of control ([1]; day 2): 160%
- wound strength activity versus control (persistence) ([1]; through day 10): greater than control
- in vitro activity compared with the conjugate of Example V [2]: more activity than the RGGDSPK peptide conjugate

Substance: chondroitin sulfate-peptide conjugate: peptide of Example I, G(dR)5G3(dR)GDSPASSK, coupled to chondroitin sulfate with EDC; 74 mg peptide/g conjugate (G[dR][dR][dR][dR][dR]GGG[dR]GDSPASSK; also: coupled to chondroitin sulfate with EDC)
- dry eye condition (impression cytology, rose bengal staining) (dry eye condition): marked reduction of the dry eye condition

Substance: RRRRRRGDSPK-conjugated to hyaluronate: peptide RRRRRRGDSPK coupled to hyaluronic acid by EDC, method of Example II (also: conjugated to hyaluronic acid by EDC)
- wound strength, % of the strength of untreated wounds ([1]; day 5 after incision (maximum effect), 0.05-0.10 ml per incision): 211%
- wound strength versus untreated control ([1]; days 3 through 7 after incision): increased
- angiogenesis [3, 4]: increased
- collagen secretion [3, 4]: increased
- fibroblast migration [3, 4]: increased
- collagen deposition into the sponges versus control sponges ([3]; up to the end of the experiment): more collagen was continuously deposited
